Laboratory results from US5252589A, “Benzocycloheptene derivative and process for preparation thereof” (Tanabe Seikayu Co., Ltd., priority 1992, dated 1993).
Where “and” joins values, the source holds several entries; their conditions need not be identical. Equal values may be shown once.

Assays:
[1] = tested on: urinary bladder; assay: Inhibitory effect on urinary bladder contractions (carbachol-induced, isolated rat urinary bladder); settings: Tyrode solution 37° C., contraction by 1×10^-5 M carbachol, compound added 5 minutes before carbachol, read-out: IC50, concentration of the test compound required to induce 50% inhibition of the pressure
Description: (Inhibitory effect on urinary bladder contractions)
Rats (body weight: 250 to 450 g) were used as the test animals. […] Urinary bladder was filled with 0.8 ml of a physiological saline solution. An ureteral catheter was inserted into the urinary bladder and one end of the catheter was connected to a pressure transducer. The change in intravesical pressure of the bladder was recorded. Contraction was induced by adding 1×10^-5 M carbachol at 30 minutes intervals. After the contraction became stable, the test compound was added to the Tyrode solution 5 minutes before the addition of carbachol.

[2] = Acute oral toxicity in mice; assay type: in vivo; settings: 500 mg/kg
Description: For example, when (±)-cis-5-(2-thienyl)-7-isopropylamino-6,7,8,9-tetrahydro-5H-benzocyclohepten-5-ol was orally administered to mice at a dose of 500 mg/kg, no mouse died two days after the administration thereof.

| IC50 [1] | Molecule | mortality two days after oral administration [2] |
| --- | --- | --- |
| 1100 nM | CCN(CC)[C@H]1CCc2ccccc2[C@](O)(c2cccs2)C1 (racemic) [(±)-cis-5-(2-thienyl)-7-diethylamino-6,7,8,9-tetrahydro-5H-benzocyclohepten-5-ol] |  |
| 700 nM | O[C@@]1(c2cccs2)C[C@@H](N2CCCCC2)CCc2ccccc21 (racemic) [(±)-cis-5-(2-thienyl)-7-(1-piperidinyl)-6,7,8,9-tetrahydro-5H-benzocyclohepten-5-ol] |  |

| Molecule | IC50 [1] | mortality two days after oral administration [2] |
| --- | --- | --- |
| (±)-cis-5-(2-thienyl)-7-isopropylamino-6,7,8,9-tetrahydro-5H-benzocyclohepten-5-ol | 2600 nM and 2200 nM | no mouse died |
